The results in this text go back to PubChem BioAssay (NCI).

Among the test systems are KM12 colon; A549 NSCLC; SNB-19 CNS; U251 CNS; HT29 colon; NCI-H226 lung; HCT-15 colon; SNB-75 CNS; UACC-62 melanoma; RXF 393 renal.
What all share (assay): NCI tumour cell line growth inhibition, 48 h

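Values below derive from 48-hour exposures of cells grown in 96-well plates, with endpoints linearly interpolated between the two concentrations bracketing the appropriate inhibition level. GI50 marks 50% less growth. TGI marks complete inhibition of growth.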

With `COc1ccc(-c2cnc(-c3ccncc3-c3cccc(OC)c3)o2)cc1`, the GI50 is 0.0471 µM with KM12 colon; 0.0409 µM with A549 NSCLC; 0.0451 µM with SNB-19 CNS; 0.0387 µM with U251 CNS; 0.033 µM with HT29 colon; 0.153 µM in the assay with NCI-H226 lung. For the same compound, the GI50 is 0.0473 µM in the assay with HCT-15 colon, 0.0329 µM with SNB-75 CNS and 0.0508 µM with UACC-62 melanoma. Further, the TGI came out at 1.82 µM with KM12 colon; 11.3 µM in the assay with A549 NSCLC; 19.5 µM in the assay with SNB-19 CNS; 13.4 µM in the assay on U251 CNS; 10.3 µM in the assay on HT29 colon; 15.6 µM with NCI-H226 lung. Moreover, the TGI with HCT-15 colon amounted to 14.5 µM; in the assay on SNB-75 CNS, 23.2 µM; in the assay with UACC-62 melanoma, 15.5 µM.

Turning to `CCN1C(=O)N(CC)C2C1NC(=S)N2/N=C/C=C/c1ccccc1` (stereo not given), the GI50 was 0.0924 µM with KM12 colon; 0.176 µM in the assay on A549 NSCLC; 0.127 µM in the assay on SNB-19 CNS; 0.0899 µM with RXF 393 renal; 0.302 µM with U251 CNS; 0.111 µM in the assay with HT29 colon. For the same compound, the GI50 in the assay on NCI-H226 lung is 0.383 µM; in the assay on HCT-15 colon, 0.0849 µM; in the assay on UACC-62 melanoma it was 0.0439 µM. In addition, the TGI with KM12 colon was > 100 µM; in the assay on A549 NSCLC, > 100 µM; in the assay on SNB-19 CNS, > 100 µM; in the assay on RXF 393 renal, > 100 µM; in the assay on U251 CNS it was > 100 µM; in the assay on HT29 colon it was > 31.8 µM. The TGI with NCI-H226 lung, in the assay on HCT-15 colon and in the assay with UACC-62 melanoma was > 100 µM each time.

Take `CCCCCCCCCCCCCCCC(=O)OCC1OC(n2cc(F)c(=O)[nH]c2=O)C(NC(=O)OCc2ccccc2)C(O)C1O` (stereo not given): the TGI in the assay on KM12 colon stood at 45 µM; in the assay with A549 NSCLC it was 38.5 µM; with SNB-19 CNS it was 32.4 µM; with U251 CNS, 31.4 µM; with HT29 colon, 36.2 µM; in the assay with HCT-15 colon, 34.4 µM. Moreover, the values for the TGI in the assay with SNB-75 CNS and in the assay on UACC-62 melanoma were 37.5 µM and 35.3 µM, respectively.

Regarding `C=C1C(=O)O[C@@H]2C[C@@]3(C)[C@H](O)CCC(=C)[C@@H]3C[C@H]12`, the TGI stood at 14.4 µM in the assay on KM12 colon; 70.5 µM in the assay on A549 NSCLC; 46.9 µM with SNB-19 CNS; 26.2 µM in the assay on U251 CNS; 12.1 µM in the assay with HT29 colon; 25.7 µM with NCI-H226 lung. Also, the TGI amounted to 35.1 µM in the assay on HCT-15 colon, 15.2 µM in the assay on SNB-75 CNS and 19 µM with UACC-62 melanoma.

As to `O=c1c2ccccc2nc(-c2cccc(Cl)c2)n1NC1OC(CO)C(O)C(O)C1O` (stereo not given), the TGI with KM12 colon, with A549 NSCLC, in the assay on SNB-19 CNS, in the assay on U251 CNS, with HT29 colon and in the assay on NCI-H226 lung was > 100 µM each time. Moreover, the TGI with HCT-15 colon, in the assay on SNB-75 CNS and with UACC-62 melanoma was > 100 µM throughout.

In the case of `CCOC(=O)c1cc(C(=O)c2ccc(OC)c(OC)c2)n2c1ccc1ccc3cccnc3c12`, the GI50 with KM12 colon was 1.3 µM; with A549 NSCLC, 5.46 µM; in the assay with SNB-19 CNS it was 5.07 µM; in the assay with U251 CNS, 3.61 µM; with HT29 colon, 1.42 µM; with NCI-H226 lung, 6.86 µM. Moreover, the GI50 is 1.25 µM with HCT-15 colon, 2.04 µM with SNB-75 CNS and 0.918 µM with UACC-62 melanoma. In addition, the TGI was 80.7 µM in the assay with KM12 colon; > 100 µM in the assay with A549 NSCLC; > 100 µM in the assay with SNB-19 CNS; 26.9 µM in the assay with U251 CNS; 23 µM with HT29 colon; > 100 µM in the assay with NCI-H226 lung. In addition, the TGI in the assay on HCT-15 colon, in the assay on SNB-75 CNS and in the assay with UACC-62 melanoma was > 100 µM in each case.

For `Oc1cn(-c2ccc(Cl)cc2)nc1-c1n[nH]c(=S)n1-c1ccc(F)cc1`, the GI50 in the assay with KM12 colon was 13 µM; with A549 NSCLC, 13.2 µM; with SNB-19 CNS, 61.9 µM; with RXF 393 renal, 28 µM; with U251 CNS, 15.8 µM; in the assay with HT29 colon, 43.2 µM. Moreover, the values for the GI50 with NCI-H226 lung, in the assay with HCT-15 colon and with UACC-62 melanoma were 26.6 µM, 11.3 µM and 12 µM, respectively. Moreover, the TGI with KM12 colon is > 100 µM; in the assay with A549 NSCLC, 56 µM; with SNB-19 CNS, > 100 µM; with RXF 393 renal it was > 100 µM; in the assay with U251 CNS it was > 100 µM; with HT29 colon it was > 100 µM. The TGI in the assay on NCI-H226 lung is 90.2 µM; in the assay on HCT-15 colon it was > 100 µM; in the assay with UACC-62 melanoma it was 28 µM.

Take `CCOC(=O)C1=C(C)N(NC(N)=O)C2(N)N(NC(N)=O)C(C)=C(C(=O)OCC)C12C#N` (stereo not given): the TGI with KM12 colon, in the assay on A549 NSCLC, in the assay on SNB-19 CNS, in the assay on U251 CNS, in the assay with HT29 colon and with NCI-H226 lung was > 100 µM each time. In addition, the TGI in the assay with HCT-15 colon, with SNB-75 CNS and in the assay on UACC-62 melanoma was > 100 µM each time.

With `O=C1C=CC2(O)OCC3C=C4O[C@@H]5OC6(CCCCC6)O[C@@H]5C4[C@@H]2[C@@H]13` (stereo not given in full), the TGI is > 100 µM with KM12 colon; > 100 µM with A549 NSCLC; > 100 µM in the assay on SNB-19 CNS; > 100 µM in the assay on U251 CNS; 50.9 µM with HT29 colon; > 100 µM in the assay with NCI-H226 lung. In addition, the TGI with HCT-15 colon was 58.7 µM; with SNB-75 CNS it was > 100 µM; in the assay on UACC-62 melanoma it was > 100 µM.

Take `CN(C)C1C(=O)C(C(N)=O)=C(O)C2(O)C(=O)C3=C(O)c4c(O)cccc4C(C)(O)C3CC12.[Cl][Sb]([Cl])[Cl]` (stereo not given): the GI50 with KM12 colon was 3.7 µM; in the assay with A549 NSCLC it was 3.47 µM; in the assay with RXF 393 renal it was 3.03 µM; in the assay on HT29 colon it was 3.79 µM; in the assay on NCI-H226 lung it was 3.33 µM; in the assay on HCT-15 colon, 3.59 µM. In the assay with UACC-62 melanoma, the GI50 is 2.55 µM. The TGI in the assay with KM12 colon came to 13.2 µM; in the assay with A549 NSCLC, 13.8 µM; with RXF 393 renal, 10.7 µM; with HT29 colon, 12.2 µM; in the assay on NCI-H226 lung, 22 µM; in the assay on HCT-15 colon it was 16.1 µM. Besides, the TGI with UACC-62 melanoma was 7.45 µM.
